Results as given in PubChem BioAssay AID1259407 (Chemical Carcinogenesis Research Information System (CCRIS), 2018).
The source made the active and inactive calls. The rule behind the calls is not given here.

Test system: CCRIS mutagenicity, Ames/micronucleus/aberration tests
Assay: CCRIS mutagenicity studies
[1] = Test System: AMES SALMONELLA TYPHIMURIUM, Strain/Indicator: TA98, Metabolic Activation: NONE, Method: PREINCUBATION
[2] = Test System: AMES SALMONELLA TYPHIMURIUM, Strain/Indicator: TA100, Metabolic Activation: NONE, Method: PREINCUBATION
[3] = Test System: Ames Salmonella typhimurium, Strain/Indicator: TA98, Metabolic Activation: None, Method: Preincubation
[4] = Test System: Ames Salmonella typhimurium, Strain/Indicator: TA98, Metabolic Activation: Rat, Liver, S-9, Aroclor 1254, Method: Preincubation
[5] = Test System: Ames Salmonella typhimurium, Strain/Indicator: TA100, Metabolic Activation: None, Method: Preincubation
[6] = Test System: Ames Salmonella typhimurium, Strain/Indicator: TA100, Metabolic Activation: Rat, Liver, S-9, Aroclor 1254, Method: Preincubation
[7] = Test System: Ames Salmonella typhimurium, Strain/Indicator: TA1535, Metabolic Activation: None, Method: Preincubation
[8] = Test System: Ames Salmonella typhimurium, Strain/Indicator: TA1535, Metabolic Activation: Rat, Liver, S-9, Aroclor 1254, Method: Preincubation

Clc1cc2c(cc1Cl)Oc1cc(Cl)c(Cl)cc1O2
mutagenic call (End Point: IN VITRO CHROMOSOMAL ABERRATIONS, Test System: CHINESE HAMSTER OVARY CELLS, Metabolic Activation: NONE): inactive; negative
mutagenic call (End Point: IN VITRO CHROMOSOMAL ABERRATIONS, Test System: CHINESE HAMSTER OVARY CELLS, Metabolic Activation: RAT, LIVER, S-9, AROCLOR 1254): inactive; negative
mutagenic call (Test System: AMES SALMONELLA TYPHIMURIUM, Strain/Indicator: TA97, Metabolic Activation: NONE, Method: PREINCUBATION): inactive; negative
mutagenic call (Test System: AMES SALMONELLA TYPHIMURIUM, Strain/Indicator: TA97, Metabolic Activation: RAT, LIVER, S-9, AROCLOR 1254, Method: PREINCUBATION): inactive; negative
mutagenic call [1]: inactive; negative
mutagenic call (Test System: AMES SALMONELLA TYPHIMURIUM, Strain/Indicator: TA98, Metabolic Activation: RAT, LIVER, S-9, AROCLOR 1254, Method: PREINCUBATION): inactive; negative
mutagenic call [2]: inactive; negative
mutagenic call (Test System: AMES SALMONELLA TYPHIMURIUM, Strain/Indicator: TA100, Metabolic Activation: RAT, LIVER, S-9, AROCLOR 1254, Method: PREINCUBATION): inactive; negative
mutagenic call (Test System: Ames Salmonella typhimurium, Strain/Indicator: TA98, Metabolic Activation: Hamster, Liver, S-9, Aroclor 1254, Method: Preincubation): inactive; negative
mutagenic call [3]: inactive; negative
mutagenic call [4]: inactive; negative
mutagenic call (Test System: Ames Salmonella typhimurium, Strain/Indicator: TA100, Metabolic Activation: Hamster, Liver, S-9, Aroclor 1254, Method: Preincubation): inactive; negative
mutagenic call [5]: inactive; negative
mutagenic call [6]: inactive; negative
mutagenic call (Test System: Ames Salmonella typhimurium, Strain/Indicator: TA1535, Metabolic Activation: Hamster, Liver, S-9, Aroclor 1254, Method: Preincubation): inactive; negative
mutagenic call [7]: inactive; negative
mutagenic call [8]: inactive; negative
mutagenic call (Test System: Ames Salmonella typhimurium, Strain/Indicator: TA1537, Metabolic Activation: Hamster, Liver, S-9, Aroclor 1254, Method: Preincubation): inactive; negative
mutagenic call (Test System: Ames Salmonella typhimurium, Strain/Indicator: TA1537, Metabolic Activation: None, Method: Preincubation): inactive; negative
mutagenic call (Test System: Ames Salmonella typhimurium, Strain/Indicator: TA1537, Metabolic Activation: Rat, Liver, S-9, Aroclor 1254, Method: Preincubation): inactive; negative
mutagenic call (Test System: MOUSE LYMPHOMA, Strain/Indicator: L5178Y (TK+/TK-), Metabolic Activation: NONE, Method: SUSPENSION/PLATE): inactive; negative
mutagenic call (Test System: MOUSE LYMPHOMA, Strain/Indicator: L5178Y (TK+/TK-), Metabolic Activation: RAT, LIVER, S-9, AROCLOR 1254, Method: SUSPENSION/PLATE): inactive; negative

Cl/C=C\CCl
mutagenic call (Test System: AMES SALMONELLA TYPHIMURIUM, Strain/Indicator: TA100, Metabolic Activation: NONE, Method: STANDARD PLATE): active; positive
mutagenic call (Test System: AMES SALMONELLA TYPHIMURIUM, Strain/Indicator: TA100, Metabolic Activation: RAT, LIVER, S-9, AROCLOR 1254, Method: STANDARD PLATE): active; positive
mutagenic call (Test System: AMES SALMONELLA TYPHIMURIUM, Strain/Indicator: TA1535, Metabolic Activation: NONE, Method: STANDARD PLATE): active; positive
mutagenic call (Test System: AMES SALMONELLA TYPHIMURIUM, Strain/Indicator: TA1535, Metabolic Activation: RAT, LIVER, S-9, AROCLOR 1254, Method: STANDARD PLATE): active; positive
mutagenic call (Test System: AMES SALMONELLA TYPHIMURIUM, Strain/Indicator: TA1978, Metabolic Activation: NONE, Method: STANDARD PLATE): active; positive
mutagenic call (Test System: AMES SALMONELLA TYPHIMURIUM, Strain/Indicator: TA1978, Metabolic Activation: RAT, LIVER, S-9, AROCLOR 1254, Method: STANDARD PLATE): active; positive

CC(=O)/C=C/C1=C(C)CCCC1(C)C
mutagenic call (Test System: AMES SALMONELLA TYPHIMURIUM, Strain/Indicator: TA98, Metabolic Activation: HAMSTER, LIVER, S-9, AROCLOR 1254 (10%), Method: PREINCUBATION): inactive; negative
mutagenic call [1]: inactive; negative
mutagenic call (Test System: AMES SALMONELLA TYPHIMURIUM, Strain/Indicator: TA98, Metabolic Activation: RAT, LIVER, S-9, AROCLOR 1254 (10%), Method: PREINCUBATION): inactive; negative
mutagenic call (Test System: AMES SALMONELLA TYPHIMURIUM, Strain/Indicator: TA100, Metabolic Activation: HAMSTER, LIVER, S-9, AROCLOR 1254 (10%), Method: PREINCUBATION): inactive; negative
mutagenic call [2]: inactive; negative
mutagenic call (Test System: AMES SALMONELLA TYPHIMURIUM, Strain/Indicator: TA100, Metabolic Activation: RAT, LIVER, S-9, AROCLOR 1254 (10%), Method: PREINCUBATION): inactive; negative
mutagenic call (Test System: AMES SALMONELLA TYPHIMURIUM, Strain/Indicator: TA1535, Metabolic Activation: HAMSTER, LIVER, S-9, AROCLOR 1254 (10%), Method: PREINCUBATION): inactive; negative
mutagenic call (Test System: AMES SALMONELLA TYPHIMURIUM, Strain/Indicator: TA1535, Metabolic Activation: NONE, Method: PREINCUBATION): inactive; negative
mutagenic call (Test System: AMES SALMONELLA TYPHIMURIUM, Strain/Indicator: TA1535, Metabolic Activation: RAT, LIVER, S-9, AROCLOR 1254 (10%), Method: PREINCUBATION): inactive; negative
mutagenic call (Test System: AMES SALMONELLA TYPHIMURIUM, Strain/Indicator: TA1537, Metabolic Activation: HAMSTER, LIVER, S-9, AROCLOR 1254 (10%), Method: PREINCUBATION): inactive; negative
mutagenic call (Test System: AMES SALMONELLA TYPHIMURIUM, Strain/Indicator: TA1537, Metabolic Activation: NONE, Method: PREINCUBATION): inactive; negative
mutagenic call (Test System: AMES SALMONELLA TYPHIMURIUM, Strain/Indicator: TA1537, Metabolic Activation: RAT, LIVER, S-9, AROCLOR 1254 (10%), Method: PREINCUBATION): inactive; negative
mutagenic call (Test System: Ames Salmonella typhimurium, Strain/Indicator: TA97a, Metabolic Activation: None, Method: Preincubation): inactive; negative
mutagenic call (Test System: Ames Salmonella typhimurium, Strain/Indicator: TA97a, Metabolic Activation: None, Method: Standard plate): inactive; negative
mutagenic call (Test System: Ames Salmonella typhimurium, Strain/Indicator: TA97a, Metabolic Activation: Rat, Liver, S-9, Aroclor 1254, Method: Preincubation): inactive; negative
mutagenic call (Test System: Ames Salmonella typhimurium, Strain/Indicator: TA97a, Metabolic Activation: Rat, Liver, S-9, Aroclor 1254, Method: Standard plate): inactive; negative
mutagenic call [3]: inactive; negative
mutagenic call (Test System: Ames Salmonella typhimurium, Strain/Indicator: TA98, Metabolic Activation: None, Method: Standard plate): inactive; negative
mutagenic call [4]: inactive; negative
mutagenic call (Test System: Ames Salmonella typhimurium, Strain/Indicator: TA98, Metabolic Activation: Rat, Liver, S-9, Aroclor 1254, Method: Standard plate): inactive; negative
mutagenic call [5]: inactive; negative
mutagenic call (Test System: Ames Salmonella typhimurium, Strain/Indicator: TA100, Metabolic Activation: None, Method: Standard plate): inactive; negative
mutagenic call [6]: inactive; negative
mutagenic call (Test System: Ames Salmonella typhimurium, Strain/Indicator: TA100, Metabolic Activation: Rat, Liver, S-9, Aroclor 1254, Method: Standard plate): inactive; negative
mutagenic call [7]: inactive; negative
mutagenic call (Test System: Ames Salmonella typhimurium, Strain/Indicator: TA1535, Metabolic Activation: None, Method: Standard plate): inactive; negative
mutagenic call [8]: inactive; negative
mutagenic call (Test System: Ames Salmonella typhimurium, Strain/Indicator: TA1535, Metabolic Activation: Rat, Liver, S-9, Aroclor 1254, Method: Standard plate): inactive; negative
